This is an account of results in PubChem BioAssay AID623935 (Southern Research Specialized Biocontainment Screening …, 2012).

Activity calls are given as the source filed them. How the calls were made is not given here.

The test system of this experiment is Chikungunya virus infected cells, antiviral inhibition. Kind of experiment: Chikungunya virus antiviral inhibition, dose response, cell-based, secondary assay (AID 623935).

In the case of `CN(C(=O)Cc1cccs1)c1nc2c(s1)CCCC2`, the half-inhibitory concentration (IC50) – broadly, the concentration needed to halve the response being measured – was 3.16 µM.
As for `CCN1CCN(Cc2nc3ccc([N+](=O)[O-])cc3c(=O)n2-c2ccccc2F)CC1`, the figure is > 100 µM (inactive).
